Experimental data from patent US20260306639A1, “DEGRADER FOR DECOMPOSING CMET PROTEIN, AND PHARMACEUTICAL COMPOSITION COMPRISING SAME” (INNOCURE THERAPEUTICS, INC., priority 2022, published 2026).

tested on: c-MET; assay: c-MET protein degradation (Simple Western), MKN-45 cells; assay type: cell-based, human; settings: MKN-45 gastric cancer cells, c-MET overexpressing; 24 hours
Protocol: In order to assess the resolution of the compound of the present invention for c-MET expressed in cells, cells were dispensed in a 12-well plate at a concentration of 2×10^5 cells/well, and then gastric cancer cell lines were treated with samples for 24 hours and lung cancer cell lines were treated for 48 hours. Cell lysates were collected using a scraper on ice, centrifuged at 4° C. 15,000 rpm for 30 min to obtain a protein-containing supernatant. Protein expression was then measured using the Simple Western Automated Western Blot System Abby instrument using 3 μg of protein for each sample. SDS and heat-induced denaturation proteins were separated by molecular weight, attached to capillary, reacted with anti-c-MET or anti-GAPDH antibodies, which are primary antibodies, and then reacted with HRP-conjugated secondary antibodies, and analyzed the protein expression signal with compass software. Protein expression was normalized based on the expression value of GAPDH, and protein development in each sample was measured as a percentage (%) based on 100% of samples treated with 0.1% DMSO carriers, and DC50 (concentration of a compound where 50% protein inhibition is achieved) was calculated from the change in protein expression amount due to compound treatment.

DC50, < 100 nM:
Cc1nn(C2CCC(=O)NC2=O)c(=O)c2ccc(N3CCN(C(=O)CN4CCC(COc5cnc(-c6cccc(Cn7nc(-c8cccc(C#N)c8)ccc7=O)c6)nc5)CC4)CC3)cc12 (stereo not drawn) [ICT-0001177, 3-(1-{[3-(5-{[1-(2-{4-[2-(2,6-dioxopiperidin-3-yl)-4-methyl-1-oxo-1,2-dihydropthalazine-6-yl]piperazine-1-yl}-2-oxoethyl)piperidine-4-yl]methoxy}pyrimidine-2-yl)phenyl]methyl}-6-oxo-1,6-dihydropyridazine-3-yl)benzonitrile]
Cc1nn(C2CCC(=O)NC2=O)c(=O)c2cc(N3CCN(CC4CCN(C(=O)CN5CCC(COc6cnc(-c7cccc(Cn8nc(-c9cccc(C#N)c9)ccc8=O)c7)nc6)CC5)CC4)CC3)ccc12 (stereo not drawn) [ICT-0001195]
N#Cc1cccc(-c2ccc(=O)n(Cc3cccc(-c4ncc(OCC5CCN(C(=O)CCN6CCN(c7ccc8c(=O)n(C9CCC(=O)NC9=O)ncc8c7)CC6)CC5)cn4)c3)n2)c1 (stereo not drawn) [ICT-0001199, 3-(1-{[3-(5-{[1-(3-{4-[2-(2,6-dioxopiperidin-3-yl)-1-oxo-1,2-dihydropthalazine-6-yl]piperazine-1-yl}propanoyl)piperidine-4-il]methoxy}pyrimidin-2-yl)phenyl]methyl}-6-oxo-1,6-dihydropyridazine-3-yl)benzonitrile]
N#Cc1cccc(-c2ccc(=O)n(Cc3cccc(-c4ncc(OCC5CCN(C(=O)CCCN6CCN(c7ccc8c(=O)n(C9CCC(=O)NC9=O)ncc8c7)CC6)CC5)cn4)c3)n2)c1 (stereo not drawn) [ICT-0001200, 3-(1-{[3-(5-{[1-(4-{4-[2-(2,6-dioxopiperidine-3-yl)-1-oxo-1,2-dihydropthalazine-6-yl]piperazine-1-day}butanoyl)piperidine-4-il]methoxy}pyrimidine-2-yl)phenyl]methyl}6-oxo-1,6-dihydropyridazine-3-yl)benzonitrile]
N#Cc1cccc(-c2ccc(=O)n(Cc3cccc(-c4ncc(OCC5CCN(C(=O)CCCCN6CCN(c7ccc8c(=O)n(C9CCC(=O)NC9=O)ncc8c7)CC6)CC5)cn4)c3)n2)c1 (stereo not drawn) [ICT-0001201, 3-(1-{[3-(5-{[1-(5-{4-[2-(2,6-dioxopiperidin-3-yl)-1-oxo-1,2-dihydropetalazine-6-yl]piperazine-1-yl}pentanoyl)piperidine-4-il]methoxy}pyrimidine-2-yl)phenyl]methyl}6-oxo-1,6-dihydropyridazine-3-yl)benzonitrile]
Cc1nn(C2CCC(=O)NC2=O)c(=O)c2cc(F)c(N3CCN(CC4CCN(C(=O)CN5CCC(COc6cnc(-c7cccc(Cn8nc(-c9cccc(C#N)c9)ccc8=O)c7)nc6)CC5)CC4)CC3)cc12 (stereo not drawn) [ICT-0001204]
N#Cc1cccc(-c2ccc(=O)n(Cc3cccc(-c4ncc(OCC5CCN(CC(=O)NCCCC#Cc6ccc7c(=O)n(C8CCC(=O)NC8=O)ncc7c6)CC5)cn4)c3)n2)c1 (stereo not drawn) [ICT-0001205]
N#Cc1cccc(-c2ccc(=O)n(Cc3cccc(-c4ncc(OCC5CCN(CC(=O)NCCCCCc6ccc7c(=O)n(C8CCC(=O)NC8=O)ncc7c6)CC5)cn4)c3)n2)c1 (stereo not drawn) [ICT-0001206]
Cc1nn(C2CCC(=O)NC2=O)c(=O)c2ccc(N3CCC(CN4CCN(CC(=O)N5CCC(COc6cnc(-c7cccc(Cn8nc(-c9cccc(C#N)c9)ccc8=O)c7)nc6)CC5)CC4)CC3)cc12 (stereo not drawn) [ICT-0001213]
Cc1nn(C2CCC(=O)NC2=O)c(=O)c2cc(N3CCN(CCCCC(=O)N4CCC(COc5cnc(-c6cccc(Cn7nc(-c8cccc(C#N)c8)ccc7=O)c6)nc5)CC4)CC3)ccc12 (stereo not drawn) [ICT-0001217]
N#Cc1cccc(-c2ccc(=O)n(Cc3cccc(-c4ncc(OCC5CCN(CC(=O)N6CCN(c7ccc8c(=O)n(C9CCC(=O)NC9=O)ncc8c7)CC6)CC5)cn4)c3)n2)c1 (stereo not drawn) [ICT-0001221]
N#Cc1cccc(-c2ccc(=O)n(Cc3cccc(-c4ncc(OCC5CCN(CCC(=O)N6CCN(c7ccc8c(=O)n(C9CCC(=O)NC9=O)ncc8c7)CC6)CC5)cn4)c3)n2)c1 (stereo not drawn) [ICT-0001223]
